{"source": "patent US20050084528A1", "about": "“Anti-platelet aggregation compositions” (priority 2003, published 2005)", "key": {"[1]": {"tested_on": "platelet aggregation induced by AA", "test": "Ex vivo platelet aggregation in platelet rich plasma of volunteers after a single oral dose, induced by arachidonic acid (1.6 mM)", "design": "species or system human", "settings": "for inhibition of platelet aggregation induced by AA (in words): single oral dose, 24 hours", "method": "(§1) The PRP samples were treated in vitro with calcium ionophore (A23187, 2.5 μM) or arachidonic acid (AA, 1.6 mM) to induce maximal aggregation. Platelet aggregation was monitored using a Dual-channel Lumi-aggregometer (Model 400, Chronolog Corporation, USA) using 0.45 ml samples of PRP. The resulting aggregation was recorded for all of the samples and a comparison was made between the pre- and post-test drug ingestion aggregation levels. The data was analysed using the Student's t-test and differences were considered significant when probability (p) was <0.05."}, "[2]": {"tested_on": "platelet aggregation induced by A23187", "test": "Ex vivo platelet aggregation in platelet rich plasma of volunteers after a single oral dose, induced by calcium ionophore A23187 (2.5 μM)", "design": "species or system human", "settings": "for % Inhibition A23187: aspirin 10 mg single oral dose, blood 24 hours after ingestion vs pre-dose, PRP, A23187 2.5 μM; for inhibition of platelet aggregation induced by A23187 (in words): single oral dose, 24 hours", "method": "as §1"}, "[3]": {"tested_on": "platelet aggregation induced by AA", "settings": "Saeed et al. 1998; cited from earlier work"}, "[4]": {"tested_on": "platelet aggregation induced by PAF", "settings": "Saeed et al. 1998; cited from earlier work"}, "[5]": {"tested_on": "platelet aggregation induced by adrenaline", "settings": "Saeed et al. 1998; cited from earlier work"}, "[6]": {"settings": "aspirin at a dose of 20 mg or 40 mg"}, "[7]": {"settings": "nimesulide at doses of 25 or 50 mg"}}, "note": "Read-outs that look alike come from different tables or passages of the source.", "data": [{"smiles": "CC(=O)Oc1ccccc1C(=O)O", "note": "[Aspirin, 2-acetoxybenzoic acid]", "values": [{"measurement": "% Inhibition AA", "setting": "[1]; aspirin 10 mg single oral dose, blood 24 hours after ingestion vs pre-dose, PRP, AA 1.6 mM", "value": 4, "unit": "%"}, {"measurement": "inhibition of platelet aggregation induced by AA (in words)", "setting": "[1]; aspirin 10 mg", "value": "ineffective"}, {"measurement": "inhibition of platelet aggregation induced by AA (in words)", "setting": "[1]; [6]", "value": "effectively inhibited"}, {"measurement": "% Inhibition A23187", "setting": "[2]", "value": 27, "unit": "%"}, {"measurement": "% Inhibition A23187", "setting": "[2]; listed as aspirin", "value": "about 25%"}, {"measurement": "inhibition of platelet aggregation induced by A23187 (in words)", "setting": "[2]; [6]", "value": "effectively inhibited"}, {"measurement": "inhibition of platelet aggregation induced by AA (in words)", "setting": "[3]", "value": "inhibit"}, {"measurement": "inhibition of platelet aggregation induced by PAF (in words)", "setting": "[4]", "value": "inhibit"}]}, {"smiles": "CS(=O)(=O)Nc1ccc([N+](=O)[O-])cc1Oc1ccccc1", "note": "[Nimesulide, N-(4-nitro-2-phenoxyphenyl)methanesulfonamide]", "values": [{"measurement": "inhibition of platelet aggregation induced by AA (in words)", "setting": "[1]; [7]", "value": "effectively inhibited"}, {"measurement": "inhibition of platelet aggregation induced by A23187 (in words)", "setting": "[2]; [7]", "value": "effectively inhibited"}, {"measurement": "inhibition of platelet aggregation induced by AA (in words)", "setting": "[3]", "value": "inhibit"}, {"measurement": "inhibition of platelet aggregation induced by PAF (in words)", "setting": "[4]", "value": "inhibit"}, {"measurement": "inhibition of platelet aggregation induced by adrenaline (in words)", "setting": "[5]", "value": "inhibits"}]}]}
